How the values were obtained:
[1] = Stability test of crystal A at room temperature, kept away from light; assay type: physicochemical
Procedure: (§1) The stability of the crystal according to the present application may be detected by placing the crystal under a condition with a high temperature, a high humidity, or a lighting condition. The high temperature condition may be 40° C. to 60° C., the high humidity condition may be a relative humidity of 75% to 92.5% RH, and the lighting condition may be 5000 Lux. The crystal stability may be evaluated by investigating several parameters, such as the content of the crystal, the total content of impurities, or the water content, of a sample, and comprehensively evaluating these parameters according to the properties of the product.
The crystal A obtained by Method 1 of Example 3 was kept away from light at room temperature, and sampled for detection in months 1.5, 2, 5, and 6, respectively.

[2] = Stability test of crystal B under high temperature, high humidity or illumination; assay type: physicochemical
Procedure: as §1
The crystal B obtained by Method 5 of Example 4 was kept respectively in an environment at a high temperature of 60° C., a high humidity of 75% RH, a high humidity of 92.5% RH, or an illumination intensity of 5000 Lux, and sampled for detection on days 5, 10, and 30, respectively.

## C=CC(=O)Nc1cc(Nc2nccc(-n3c(=O)n(C)c4ccccc43)n2)c(OC)cc1N(C)CCN(C)C [crystal A]
[1]; Initial Result
  Characters: off-white
  Content (%): 100.3%
  Total Impurity (%): 1.11%
[1]; Month 1.5
  Characters: off-white
  Content (%): 100.5%
  Total Impurity (%): 1.52%
[1]; Month 2
  Characters: off-white
  Total Impurity (%): 1.23%
[1]; Month 5
  Characters: off-white
  Content (%): 100%
  Total Impurity (%): 1.5%
[1]; Month 6
  Characters: off-white
  Content (%): 99.8%
  Total Impurity (%): 1.37%

## C=CC(=O)Nc1cc(Nc2nccc(-n3c(=O)n(C)c4ccccc43)n2)c(OC)cc1N(C)CCN(C)C [crystal B]
[2]; Day 0
  Characters: white
  Content (%): 99.3%
  Total Impurity (%): 0.12%
[2]; High Humidity 75% RH, Day 5
  Characters: white
  Content (%): 99.3%
[2]; High Humidity 75% RH, Day 10
  Characters: white
  Content (%): 103.6%
  Total Impurity (%): 0.07%
[2]; High Humidity 75% RH, Day 30
  Characters: off-white
  Content (%): 106.4%
  Total Impurity (%): 0.06%
[2]; High Humidity 92.5% RH, Day 5
  Characters: white
  Content (%): 98.4%
[2]; High Humidity 92.5% RH, Day 10
  Characters: white
  Content (%): 105.2%
  Total Impurity (%): 0.06%
[2]; High Humidity 92.5% RH, Day 30
  Characters: off-white
  Content (%): 103.9%
  Total Impurity (%): 0.07%
[2]; High Temp. 60° C., Day 5
  Characters: white
  Content (%): 100.5%
[2]; High Temp. 60° C., Day 10
  Characters: white
  Content (%): 104.2%
  Total Impurity (%): 0.09%
[2]; High Temp. 60° C., Day 30
  Characters: off-white
  Content (%): 107.9%
  Total Impurity (%): 0.19%
[2]; Illumination 5000 Lux, Day 5
  Characters: white
  Content (%): 99.4%
  Total Impurity (%): 0.06%
[2]; Illumination 5000 Lux, Day 10
  Characters: white
  Content (%): 106.9%
  Total Impurity (%): 0.14%
[2]; Illumination 5000 Lux, Day 30
  Characters: off-white
  Content (%): 107.9%
  Total Impurity (%): 0.37%

Source: patent US20200361908A1, “CRYSTALS OF ANILINE PYRIMIDINE COMPOUND SERVING AS EGFR INHIBITOR” (CHIA TAI TIANQING PHARMACEUTICAL GROUP CO., LTD., priority 2016, published 2020)
